Measurements as given in publication PMC5702617, “Novel peptide probes to assess the tensional state of fibronectin fibers in cancer” (Nature Communications, 2017).
Where two headings read alike, the source gives them in different places.

Columns and labels:
[1] = In vitro plasma stability; format: in vitro ADME, human; conditions: RP-HPLC, means from three experiments; for stability in human blood plasma: 37°C
Experimental: The stability of peptides in blood is often limited as they are rapidly cleaved by catalytic enzymes found in tissue and blood, resulting in a short biological half-life. […] To verify whether the FnBPA5 peptide can be used for in vivo applications, we next performed a plasma stability test. The metabolic stability of the peptide radiotracer ^111In-FnBPA5 was tested in vitro by incubating the radiolabeled FnBPA5 at 37°C with human blood plasma, or water as control. The unbound peptide fraction was separated from the plasma proteins at different time points (0, 1, 24, 48, and 72 h) and was analyzed by reversed-phase high-pressure liquid chromatography (RP-HPLC).
After that, the samples were filtrated using a Thomson Single StEP Filter vial 0.45 μm PVDF (Thomson Instrument Company, Oceanside, USA) and the supernatant was analyzed by reversed-phase HPLC (Varian Prostar HPLC System, SpectraLab Scientific Inc., Canada) using a D-Bio Discovery Wide Pore C18 column (25 cm × 4.6 mm; 5 μm).

[2] = test system: PC-3-bearing mice; test: In vivo blocking experiment in PC-3 tumor grafted mice; set-up: species or system mouse
Experimental: (§1) For the biodistribution experiments, PC-3 tumor grafted mice were injected into the tail vein with 150 kBq ^111In-FnBPA5 or ^111In-scrambled FnBPA5 (2.4 nmol, 100 µL PBS). For each peptide, groups of four mice were sacrificed at 1, 4, 24, and 96 h post injection. Blocking experiment (n = 4) was performed by injection of an excess of peptide (100 µg, 24 nmol in 100 µL PBS) directly before the administration of the corresponding radiolabeled peptide. The organs were collected, weighed and counted for activity with a γ counter (Packard Cobra II Auto, Gamma, PerkinElmer AG, Schwerzenbach, Switzerland) 4 h p.i. The results were expressed as a percentage of injected activity per gram of tissue (% IA per g tissue). The Student's t test analyses were considered as type 3 (two sample unequal variance) and statistical significance was assumed for p-values smaller than 0.05.

[3] = test system: PC-3-bearing mice; test: SPECT/CT imaging of PC-3-bearing mice; format: in vivo, mouse
Experimental: Thirty-three days from the inoculation of the tumor cells, the mice were intravenously injected with ~15 MBq ^111In-FnBPA5 resp. ^111In-scrambled FnBPA5-NODAGA (2.4 nmol, 100 µL PBS) into the tail vein. […] The images were reconstituted and processed with InVivoScope® software (Bioscan Inc., Washington DC, USA).

[4] = test system: PC-3-bearing mice; test: Biodistribution in PC-3 tumor grafted mice; format: in vivo, mouse; conditions: PC-3 grafted mice, i.v. 150 kBq (2.4 nmol, 100 µL PBS), γ counter, mean ± SD, n = 4
Experimental: (§2) Experiments were performed 3–4 weeks after inoculation.
as §1

[5] = Biodistribution in PC-3 tumor grafted mice; format: in vivo, mouse; conditions: female, CD1 nude, mouse, in vivo, iv, 150 kBq (2.4 nmol), total radioactivity, PC-3 grafted mice, i.v. 150 kBq (2.4 nmol), mean ± SD, n = 4; for tissue to tissue ratio at 1 h: 1 h p.i.; for tissue to tissue ratio at 4 h: 4 h p.i.; for tissue to tissue ratio at 24 h: 24 h p.i.; for tissue to tissue ratio at 96 h: 96 h p.i.
Experimental: as §2, §1

[6] = 10-fold excess of unlabeled FnBPA5 (24 nmol) pre-injected, 4 h p.i.
[7] = 4h p.i. blocking: corresponding unlabeled peptide (24 nmol) i.v. directly before the radiolabeled peptide, PC-3 grafted mice, mean ± SD, n = 4
[8] = read-out: Tumor-to-kidney ratio

## CC[C@H](C)[C@H](NC(=O)CNC(=O)[C@H](CCCCN)NC(=O)[C@@H](NC(=O)[C@H](CO)NC(=O)[C@H](CCC(=O)O)NC(=O)[C@H](CCC(=O)O)NC(=O)[C@H](CC(=O)O)NC(=O)[C@H](Cc1ccccc1)NC(=O)[C@H](CCC(=O)O)NC(=O)[C@@H](NC(=O)[C@H](CC(C)C)NC(=O)[C@H](CC(N)=O)NC(=O)[C@H](CO)NC(=O)[C@H](CCC(=O)O)NC(=O)[C@@H](NC(=O)[C@@H](NC(=O)[C@@H](NC(=O)[C@H](CCC(N)=O)NC(=O)CNC(=O)CNC(=O)CNC(=O)[C@@H](N)CSC1CC(=O)N(CCNC(=O)CCC(C(=O)O)N2CCN(CC(=O)O)CCN(CC(=O)O)CC2)C1=O)C(C)C)[C@@H](C)O)[C@@H](C)O)C(C)C)[C@@H](C)O)C(=O)N[C@H](C(=O)N[C@H](C(=O)NCC(=O)N[C@@H](C)C(=O)N[C@H](C(=O)N[C@@H](CO)C(=O)N[C@@H](CC(=O)O)C(=O)N[C@@H](Cc1c[nH]cn1)C(=O)N[C@H](C(=O)N[C@H](C(=O)N[C@H](C(=O)N[C@@H](CCC(=O)O)C(=O)N[C@@H](CC(=O)O)C(=O)N[C@H](C(=O)N[C@@H](CCCCN)C(=O)O)[C@@H](C)O)C(C)C)[C@@H](C)O)[C@@H](C)O)C(C)C)[C@@H](C)O)C(C)C (some centres unmarked) [111In-FnBPA5, metal not drawn]
[1]; 1 hour time point
  stability in human blood plasma: high stability
[1]; later time point
  stability in human blood plasma: very high stability
[1]; filtered fresh human blood plasma, 37 °C, 72 h, 12 MBq
  fraction intact in human blood plasma: 80%
[1]; filtered fresh human blood plasma, 37 °C, 72 h, 12 MBq, read-out: fraction intact in human blood plasma
  remaining at 72 h: ~80%
[2]; 24 nmol unlabeled peptide pre-injected, 4 h p.i., Student's t test, n = 4
  effect of pre-injection of unlabeled peptide on accumulation: significant reduction
[2]; [6]
  blocking effect on uptake, liver: −58.2%
  blocking effect on uptake, tumor tissue: −35.6%
[2]; [7]
  Biodistribution with blocking, Blood: 0.29 ± 0.074 IA% / g
  Biodistribution with blocking, Bone: 0.73 ± 0.31 IA% / g
  Biodistribution with blocking, Heart: 0.37 ± 0.080 IA% / g
  Biodistribution with blocking, Intestines: 0.53 ± 0.137 IA% / g
  Biodistribution with blocking, Kidneys: 175.80 ± 32.48 IA% / g
  Biodistribution with blocking, Liver: 1.61 ± 0.56 IA% / g
  Biodistribution with blocking, Lung: 0.95 ± 0.317 IA% / g
  Biodistribution with blocking, Muscle: 0.20 ± 0.12 IA% / g
  Biodistribution with blocking, Pancreas: 0.96 ± 0.384 IA% / g
  Biodistribution with blocking, Spleen: 1.33 ± 0.402 IA% / g
  Biodistribution with blocking, Stomach: 1.13 ± 0.14 IA% / g
  Biodistribution with blocking, Tumor: 2.91 ± 0.70 IA% / g
[3]; ~15 MBq (2.4 nmol, 100 µL PBS) i.v., up to 96 h p.i.
  SPECT/CT distribution: mainly accumulated in the kidneys
[3]; ~15 MBq i.v., 96 h p.i., post mortem, kidneys removed
  SPECT/CT distribution after kidney removal: predominant uptake in the tumor, liver, and spleen
[4]; 1 h p.i.
  Biodistribution, Blood: 1.81 ± 0.62 IA% / g
  Biodistribution, Bone: 1.85 ± 0.21 IA% / g
  Biodistribution, Heart: 1.76 ± 0.51 IA% / g
  Biodistribution, Intestines: 2.27 ± 0.33 IA% / g
  Biodistribution, Kidneys: 140.58 ± 18.10 IA% / g
  Biodistribution, Liver: 7.52 ± 1.50 IA% / g
  Biodistribution, Lung: 2.88 ± 0.64 IA% / g
  Biodistribution, Muscle: 0.57 ± 0.07 IA% / g
  Biodistribution, Pancreas: 2.58 ± 1.27 IA% / g
  Biodistribution, Spleen: 7.01 ± 1.23 IA% / g
  Biodistribution, Stomach: 3.07 ± 0.39 IA% / g
[4]; 4 h p.i.
  Biodistribution, Blood: 0.48 ± 0.08 IA% / g
  Biodistribution, Bone: 1.32 ± 0.26 IA% / g
  Biodistribution, Heart: 0.91 ± 0.06 IA% / g
  Biodistribution, Intestines: 1.77 ± 0.12 IA% / g
  Biodistribution, Kidneys: 130.66 ± 10.32 IA% / g
  Biodistribution, Liver: 3.85 ± 0.16 IA% / g
  Biodistribution, Lung: 1.98 ± 0.12 IA% / g
  Biodistribution, Muscle: 0.50 ± 0.17 IA% / g
  Biodistribution, Pancreas: 2.31 ± 1.18 IA% / g
  Biodistribution, Spleen: 3.35 ± 0.33 IA% / g
  Biodistribution, Stomach: 2.46 ± 0.36 IA% / g
  Biodistribution, Tumor: 4.51 ± 0.15 IA% / g
[4]; 24 h p.i.
  Biodistribution, Blood: 0.15 ± 0.008 IA% / g
  Biodistribution, Bone: 0.86 ± 0.117 IA% / g
  Biodistribution, Heart: 0.31 ± 0.025 IA% / g
  Biodistribution, Intestines: 0.57 ± 0.039 IA% / g
  Biodistribution, Kidneys: 92.36 ± 14.25 IA% / g
  Biodistribution, Liver: 1.64 ± 0.26 IA% / g
  Biodistribution, Lung: 1.05 ± 0.11 IA% / g
  Biodistribution, Muscle: 0.24 ± 0.034 IA% / g
  Biodistribution, Pancreas: 0.78 ± 0.47 IA% / g
  Biodistribution, Spleen: 1.38 ± 0.068 IA% / g
  Biodistribution, Stomach: 0.51 ± 0.15 IA% / g
  Biodistribution, Tumor: 3.59 ± 0.53 IA% / g
[4]; 96 h p.i.
  Biodistribution, Blood: 0.06 ± 0.027 IA% / g
  Biodistribution, Bone: 0.50 ± 0.09 IA% / g
  Biodistribution, Heart: 0.14 ± 0.017 IA% / g
  Biodistribution, Intestines: 0.13 ± 0.02 IA% / g
  Biodistribution, Kidneys: 39.69 ± 4.79 IA% / g
  Biodistribution, Liver: 0.89 ± 0.12 IA% / g
  Biodistribution, Lung: 0.32 ± 0.038 IA% / g
  Biodistribution, Muscle: 0.095 ± 0.02 IA% / g
  Biodistribution, Pancreas: 0.18 ± 0.046 IA% / g
  Biodistribution, Spleen: 0.73 ± 0.417 IA% / g
  Biodistribution, Stomach: 0.31 ± 0.052 IA% / g
  Biodistribution, Tumor: 1.87 ± 0.773 IA% / g
[5]; read-out: Tumor-to-blood ratio
  tissue to tissue ratio at 1 h: 3.05 ± 1.65
  tissue to tissue ratio at 4 h: 9.68 ± 1.83
  tissue to tissue ratio at 24 h: 23.9 ± 2.52
  tissue to tissue ratio at 96 h: 34 ± 18.4
[5]; [8]
  tissue to tissue ratio at 1 h: 0.03
  tissue to tissue ratio at 4 h: 0.03
  tissue to tissue ratio at 24 h: 0.04
  tissue to tissue ratio at 96 h: 0.05 ± 0.02
[5]; read-out: Tumor-to-liver ratio
  tissue to tissue ratio at 1 h: 0.66 ± 0.22
  tissue to tissue ratio at 4 h: 1.18 ± 0.08
  tissue to tissue ratio at 24 h: 2.21 ± 0.25
  tissue to tissue ratio at 96 h: 2.11 ± 0.82
